From patent US10350271B2, “Lipidated peptides for lowering blood glucose” (USTAV ORGANICKE CHEMIE A BIOCHEMIE AKADEMIE VED CR, V.V.I., priority 2014, dated 2019)
Numbered stars: 1 amine (or outer) side, 2 acyl side, 3 side chain; on linkers, the order of the positions; unused ones are H or OH. Side chains are listed from the residue outwards. Peptide text beside a SMILES is read from it. * marks the point of attachment. TTDA(Palmitoyl) = CCCCCCCCCCCCCCCC(=O)NCCCOCCOCCOCCCN*; γGlu = O=C(O)[C@H](CCC(=O)[*:2])N[*:1]; Palmitoyl = CCCCCCCCCCCCCCCC(=O)*; Suc = O=C(CCC(=O)[*:2])[*:1]; GABA = NCCCC(=O)O

Assays:
[1] = target: T1, human PrRP receptor GPR10 (Homo sapiens, UniProt P49683); assay: Competitive binding in CHO cells transfected with human GPR10 (human 125I-PrRP31); conditions: for Ki: CHO cells, human 125I-PrRP31, read-out: Ki, GPR10 human receptor transfected in CHO cells; for % of PrRP31, GPR10 human receptor transfected in CHO cells: affinity relative to PrRP31
T1 construct: host or cells: CHO cells
T1 sequence (P49683 1-370): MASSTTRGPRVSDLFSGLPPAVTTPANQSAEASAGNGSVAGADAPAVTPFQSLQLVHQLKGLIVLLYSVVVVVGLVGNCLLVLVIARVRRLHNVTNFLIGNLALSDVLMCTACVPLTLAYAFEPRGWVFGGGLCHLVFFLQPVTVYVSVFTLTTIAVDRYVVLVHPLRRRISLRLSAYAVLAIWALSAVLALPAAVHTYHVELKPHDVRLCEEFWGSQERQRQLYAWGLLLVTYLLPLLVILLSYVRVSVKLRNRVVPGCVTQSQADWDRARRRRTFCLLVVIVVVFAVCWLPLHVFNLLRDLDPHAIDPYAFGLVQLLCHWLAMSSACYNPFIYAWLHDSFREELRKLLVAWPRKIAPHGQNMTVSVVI
Outline: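 Values from one-site nonlinear regression of displacement curves: analogs (final 10^-11 to 10^-4 mol·l^-1) competed with 125I-PrRP31 (final 5×10^-11 mol·l^-1) on adherent human GPR10 CHO cells. Binding ran 1 h at room temperature, pH 7.4 buffer with NaCl, MgCl2, CaCl2, glucose, BSA; cell-bound radioactivity counted after NaOH lysis.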

C57BL/6 mice = assay: Food intake in fasted mice after SC injection; assay type: in vivo; conditions: 5 mg/kg SC, 45 min after injection
Outline: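 Saline, PrRP or a lipidated analog was injected SC (1-10 mg/kg) after a 17 h fast with free water, animals housed singly.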

Wistar rats = assay: Food intake in fasted rats after SC injection; assay type: in vivo; conditions: overnight fasted rats, compared to controls given vehicle
Description: NMRI mice, C57BL/6 mice, and Wistar rats (AnLab, Prague, Czech Republic) were housed in a temperature of 23° C. and a daily cycle of 12 h light and dark (light from 6:00). They were given ad libitum water and a standard chow diet that contained 25, 9 and 66% of calories of protein, fat and carbohydrate respectively. Energy content of the feed was 3.4 kcal/g (St-1, Mlýn Kocanda, Czech Republic). Db/db mice and their controls (C57BL/6 background) were obtained from Taconic (Denmark), housed under the same conditions as described above, and fed by Altromin (Taconic, Denmark). ZDF-Lepr^fa/Crl, diabetic fa/fa male rats were obtained from Charles River (France), housed under same conditions as described above, and fed with a Purina 5008 diet (IPS Product Supplies Limited, UK). All experiments followed the ethical guidelines for animal experiments and the law of the Czech Republic Nr. 246/1992.
In experiments with C57BL/6 mice or Wistar rats, food intake was measured with overnight fasted animals in individual cages. Food was withdrawn 17 hours prior to injection of lipidated analog of prolactin releasing peptide (PrRP); free access to water was maintained. The administration of either saline, PrRP, or lipidated analogs was performed by SC injection at doses of 1-10 mg/kg (which corresponded to a volume of 0.2 ml/mouse and 0.1 ml/100 g weight of rat). Fifteen minutes after the lipidated analog of prolactin releasing peptide (PrRP) administration, the mice were given pre-weighed food. The food was then weighed every 30 minutes for 5-10 hours. The administration of each dose was performed at least twice, and each group of mice consisted of at least 6 mice.

rat PrRP receptor = target: T2, rat PrRP receptor (Rattus norvegicus, UniProt Q64121); assay: Competitive binding in RC-4B/C rat pituitary cells (125I-rat PrRP31); conditions: for Ki: RC-4B/C cells, displacement of 125I-rat PrRP31, read-out: Ki, RC-4B/C rat pituitary cells ^25I-rat PrRP31; for % of PrRP31, RC-4B/C rat pituitary cells: affinity relative to PrRP31
T2 construct: host or cells: RC-4B/C rat pituitary cell line
T2 sequence (Q64121 1-370): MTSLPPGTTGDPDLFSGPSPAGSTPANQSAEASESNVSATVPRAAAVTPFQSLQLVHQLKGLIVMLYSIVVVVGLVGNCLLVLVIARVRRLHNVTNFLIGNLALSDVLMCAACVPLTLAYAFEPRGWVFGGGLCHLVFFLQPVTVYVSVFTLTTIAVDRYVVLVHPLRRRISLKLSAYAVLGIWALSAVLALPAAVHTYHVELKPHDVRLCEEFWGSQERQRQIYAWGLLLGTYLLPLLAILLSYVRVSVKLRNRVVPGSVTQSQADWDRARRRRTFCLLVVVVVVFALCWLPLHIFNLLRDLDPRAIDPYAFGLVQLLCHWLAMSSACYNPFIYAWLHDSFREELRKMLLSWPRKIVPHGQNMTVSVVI
Outline: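 Displacement of rat 125I-PrRP31 ([…]) by test analogs, 10^−11–10^−4 mol·l^−1, on whole RC-4B/C cells, 60 min RT. Bound counts measured by γ-counter in duplicate, ≥3 repeats, analyzed by nonlinear one-site binding regression.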

Row | Compound | Ki [1] | % of PrRP31, GPR10 human receptor transfected in CHO cells [1] | Ki (rat PrRP receptor) | % of PrRP31, RC-4B/C rat pituitary cells (rat PrRP receptor) | Food intake in mice % of saline-treated group (C57BL/6 mice) | Food intake in rats (Wistar rats)
1 | CCCCCCCCCCCCCCCC(=O)N[C@@H](CCC(=O)N[C@@H](CO)C(=O)N[C@@H](CCCNC(=N)N)C(=O)N[C@H](C(=O)N[C@@H](Cc1c[nH]cn1)C(=O)N[C@@H](CCCNC(=N)N)C(=O)N[C@@H](Cc1c[nH]cn1)C(=O)N[C@@H](CO)C(=O)N[C@@H](CCSC)C(=O)N[C@@H](CCC(=O)O)C(=O)N[C@H](C(=O)N[C@@H](CCCNC(=N)N)C(=O)N[C@H](C(=O)N1CCC[C@H]1C(=O)N[C@@H](CC(=O)O)C(=O)N[C@H](C(=O)N[C@@H](CC(N)=O)C(=O)N1CCC[C@H]1C(=O)N[C@@H](C)C(=O)N[C@@H](Cc1c[nH]c2ccccc12)C(=O)N[C@@H](Cc1ccc(O)cc1)C(=O)N[C@@H](C)C(=O)N[C@@H](CO)C(=O)N[C@@H](CCCNC(=N)N)C(=O)NCC(=O)N[C@H](C(=O)N[C@@H](CCCNC(=N)N)C(=O)N1CCC[C@H]1C(=O)N[C@H](C(=O)NCC(=O)N[C@@H](CCCNC(=N)N)C(=O)N[C@@H](Cc1ccccc1)C(N)=O)C(C)C)[C@@H](C)CC)[C@@H](C)CC)[C@@H](C)O)[C@@H](C)CC)[C@@H](C)O)C(=O)O [Analog 54] |  | 57% | 0.5 ± 0.13 nM | 119% | 14% | significantly reduced
2 | CCCCCCCCCCCCCCCC(=O)N[C@@H](CCC(=O)NCCCC[C@H](NC(=O)[C@@H](NC(=O)[C@H](CCC(=O)O)NC(=O)[C@H](CCSC)NC(=O)[C@H](CO)NC(=O)[C@H](Cc1c[nH]cn1)NC(=O)[C@H](CCCNC(=N)N)NC(=O)[C@H](Cc1c[nH]cn1)NC(=O)[C@@H](NC(=O)[C@H](CCC(=O)O)NC(=O)[C@@H](N)CO)[C@@H](C)O)[C@@H](C)CC)C(=O)N[C@H](C(=O)N1CCC[C@H]1C(=O)N[C@@H](CC(=O)O)C(=O)N[C@H](C(=O)N[C@@H](CC(N)=O)C(=O)N1CCC[C@H]1C(=O)N[C@@H](C)C(=O)N[C@@H](Cc1c[nH]c2ccccc12)C(=O)N[C@@H](Cc1ccc(O)cc1)C(=O)N[C@@H](C)C(=O)N[C@@H](CO)C(=O)N[C@@H](CCCNC(=N)N)C(=O)NCC(=O)N[C@H](C(=O)N[C@@H](CCCNC(=N)N)C(=O)N1CCC[C@H]1C(=O)N[C@H](C(=O)NCC(=O)N[C@@H](CCCNC(=N)N)C(=O)N[C@@H](Cc1ccccc1)C(N)=O)C(C)C)[C@@H](C)CC)[C@@H](C)CC)[C@@H](C)O)C(=O)O [Analog 55] (H-SETHRHSMEIK([γGlu-Palmitoyl])TPDINPAWYASRGIRPVGRF-NH2) | 4.72 ± 0.35 nM | 83% |  | 236% | 12% | significantly reduced

Continued, in another order:

Row | Ki [1] | % of PrRP31, GPR10 human receptor transfected in CHO cells [1] | Ki (rat PrRP receptor) | % of PrRP31, RC-4B/C rat pituitary cells (rat PrRP receptor) | Compound | Food intake in mice % of saline-treated group (C57BL/6 mice) | Food intake in rats (Wistar rats)
3 | 6.37 ± 0.78 nM | 61% |  |  | CCCCCCCCCCCCCCCC(=O)NCCCC[C@H](NC(=O)[C@@H](NC(=O)[C@H](CCC(=O)O)NC(=O)[C@H](CCSC)NC(=O)[C@H](CO)NC(=O)[C@H](Cc1c[nH]cn1)NC(=O)[C@H](CCCNC(=N)N)NC(=O)[C@H](Cc1c[nH]cn1)NC(=O)[C@@H](NC(=O)[C@H](CCCNC(=N)N)NC(=O)[C@@H](N)CO)[C@@H](C)O)[C@@H](C)CC)C(=O)N[C@H](C(=O)N1CCC[C@H]1C(=O)N[C@@H](CC(=O)O)C(=O)N[C@H](C(=O)N[C@@H](CC(N)=O)C(=O)N1CCC[C@H]1C(=O)N[C@@H](C)C(=O)N[C@@H](Cc1c[nH]c2ccccc12)C(=O)N[C@@H](Cc1ccc(O)cc1)C(=O)N[C@@H](C)C(=O)N[C@@H](CO)C(=O)N[C@@H](CCCNC(=N)N)C(=O)NCC(=O)N[C@H](C(=O)N[C@@H](CCCNC(=N)N)C(=O)N1CCC[C@H]1C(=O)N[C@H](C(=O)NCC(=O)N[C@@H](CCCNC(=N)N)C(=O)N[C@@H](Cc1ccccc1)C(N)=O)C(C)C)[C@@H](C)CC)[C@@H](C)CC)[C@@H](C)O [Analog 48] (H-SRTHRHSMEIK(Palmitoyl)TPDINPAWYASRGIRPVGRF-NH2) | 13% | significantly reduced
4 | 9.19 ± 0.96 nM | 42.5% | 1.26 ± 0.57 nM | 190% | CCCCCCCCCCCCCCCC(=O)NCCCC(=O)NCCCC[C@H](NC(=O)[C@@H](NC(=O)[C@H](CCC(=O)O)NC(=O)[C@H](CCSC)NC(=O)[C@H](CO)NC(=O)[C@H](Cc1c[nH]cn1)NC(=O)[C@H](CCCNC(=N)N)NC(=O)[C@H](Cc1c[nH]cn1)NC(=O)[C@@H](NC(=O)[C@H](CCCNC(=N)N)NC(=O)[C@@H](N)CO)[C@@H](C)O)[C@@H](C)CC)C(=O)N[C@H](C(=O)N1CCC[C@H]1C(=O)N[C@@H](CC(=O)O)C(=O)N[C@H](C(=O)N[C@@H](CC(N)=O)C(=O)N1CCC[C@H]1C(=O)N[C@@H](C)C(=O)N[C@@H](Cc1c[nH]c2ccccc12)C(=O)N[C@@H](Cc1ccc(O)cc1)C(=O)N[C@@H](C)C(=O)N[C@@H](CO)C(=O)N[C@@H](CCCNC(=N)N)C(=O)NCC(=O)N[C@H](C(=O)N[C@@H](CCCNC(=N)N)C(=O)N1CCC[C@H]1C(=O)N[C@H](C(=O)NCC(=O)N[C@@H](CCCNC(=N)N)C(=O)N[C@@H](Cc1ccccc1)C(N)=O)C(C)C)[C@@H](C)CC)[C@@H](C)CC)[C@@H](C)O [Analog 53] (H-SRTHRHSMEIK([GABA-Palmitoyl])TPDINPAWYASRGIRPVGRF-NH2) | 25% | significantly reduced
5 | 3.79 ± 0.46 nM | 103% |  | 663% | CCCCCCCCCCCCCCCC(=O)NCCCOCCOCCOCCCNC(=O)CCC(=O)NCCCC[C@H](NC(=O)[C@@H](NC(=O)[C@H](CCC(=O)O)NC(=O)[C@H](CCSC)NC(=O)[C@H](CO)NC(=O)[C@H](Cc1c[nH]cn1)NC(=O)[C@H](CCCNC(=N)N)NC(=O)[C@H](Cc1c[nH]cn1)NC(=O)[C@@H](NC(=O)[C@H](CCCNC(=N)N)NC(=O)[C@@H](N)CO)[C@@H](C)O)[C@@H](C)CC)C(=O)N[C@H](C(=O)N1CCC[C@H]1C(=O)N[C@@H](CC(=O)O)C(=O)N[C@H](C(=O)N[C@@H](CC(N)=O)C(=O)N1CCC[C@H]1C(=O)N[C@@H](C)C(=O)N[C@@H](Cc1c[nH]c2ccccc12)C(=O)N[C@@H](Cc1ccc(O)cc1)C(=O)N[C@@H](C)C(=O)N[C@@H](CO)C(=O)N[C@@H](CCCNC(=N)N)C(=O)NCC(=O)N[C@H](C(=O)N[C@@H](CCCNC(=N)N)C(=O)N1CCC[C@H]1C(=O)N[C@H](C(=O)NCC(=O)N[C@@H](CCCNC(=N)N)C(=O)N[C@@H](Cc1ccccc1)C(N)=O)C(C)C)[C@@H](C)CC)[C@@H](C)CC)[C@@H](C)O [Analog 57] (H-SRTHRHSMEIK([Suc-TTDA(Palmitoyl)])TPDINPAWYASRGIRPVGRF-NH2; N-terminus assumed) | 10% | significantly reduced
